Patent US11370785B2, “Multicyclic compounds as farnesoid X receptor modulators” (BRISTOL-MYERS SQUIBB COMPANY, priority 2017, dated 2022)
Like-named read-outs stand apart in the source and are kept apart here.

Molecular target: T1, human FXR (Homo sapiens, UniProt Q96RI1)
T1 construct: expressed in transfected cells; host or cells: HEK293 cells stably carrying a 5xGal4-response-element firefly luciferase reporter, transiently transfected with the pcDNA3.1-Gal4-FXR plasmid
T1 sequence (Q96RI1 262-486 limits assumed): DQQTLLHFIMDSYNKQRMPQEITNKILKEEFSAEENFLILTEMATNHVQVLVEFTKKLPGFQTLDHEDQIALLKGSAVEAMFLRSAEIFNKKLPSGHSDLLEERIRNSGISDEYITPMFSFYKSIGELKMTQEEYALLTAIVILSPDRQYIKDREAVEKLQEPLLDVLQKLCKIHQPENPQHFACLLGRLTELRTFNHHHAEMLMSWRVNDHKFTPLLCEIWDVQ
Assay: transient human FXR/Gal4-luciferase reporter assay
Format: cell-based
Details: Gal4-hFXR reporter in HEK293 cells
In short: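 HEK293 cells stably carrying a 5×Gal4-response-element firefly luciferase reporter, transiently transfected with a CMV-driven Gal4 DNA-binding domain–human FXR ligand-binding domain fusion, were treated overnight at 37 °C with serially diluted compounds. Luminescence was read by Steady-Glo; DMSO background was subtracted and signal expressed as percent of the 8 μM GW-4064 response.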

[1] = relative to 8 μM GW-4064, read-out: FXR EC50

| EC50 [1] [nM] | EC50 (read-out: HLE GAL-FXR EC50) [nM] | SMILES |
| --- | --- | --- |
| 12 | – | CC(C)Oc1cc(C(=O)O)nc2ccc(N3CCC4(CC3)CC(Cc3c(-c5ccccc5OC(F)(F)F)noc3C3CC3)C4)cc12 [Example 90] |
| 661 | – | Cc1cccc(Cl)c1-c1noc(C2CC2)c1C=C1CC2(CCN(S(=O)(=O)c3cccc(C(=O)O)c3)CC2)C1 [Example 63] |
| 26 | – | O=C(O)c1cc(C(F)(F)F)c2cc(N3CCC4(CC3)CC(=Cc3c(-c5c(Cl)cncc5Cl)noc3C(F)(F)F)C4)ccc2n1 [Example 153] |
| 960 | – | O=C(O)c1cc2ccc(N3CCC4(CC3)CC(Cc3c(-c5ccccc5C(F)(F)F)noc3C3CC3)C4)cc2cn1 [Example 35] |
| 9 | – | Cn1cc(C(=O)O)c2ccc(N3CCC4(CC3)CC(=Cc3c(-c5c(Cl)cccc5Cl)noc3C3CC3)C4)cc21 [Example 24] |
| 112 | – | CCOc1cc(C(N)=O)ncc1N1CCC2(CC1)CC(=Cc1c(-c3c(Cl)cncc3Cl)noc1C1CC1)C2 [Example 146] |
| 370 | – | O=C(O)c1cccc(N2CCC3(CC2)CC(=Cc2c(-c4c(Cl)cccc4Cl)noc2C2CC2)C3)c1 [Example 64] |
| 19 | – | O=C(O)c1cc(C(F)(F)F)c2cc(N3CCC4(CC3)CC(=Cc3c(-c5ccncc5C(F)(F)F)noc3C3CC3)C4)ccc2n1 [Example 128] |
| 260 | – | O=C(O)c1cc(F)c2nc(N3CCC4(CC3)CC(=Cc3c(-c5c(Cl)cccc5Cl)noc3C3CC3)C4)sc2c1 [Example 130] |
| 198 | – | O=C(O)c1cc(F)c2nc(N3CCC4(CC3)CC(=Cc3c(-c5ccncc5C(F)(F)F)noc3C3CC3)C4)sc2c1 [Example 127] |
| – | 201 | O=C(O)c1cc(F)c2nc(N3CCC4(CC3)CC(=Cc3c(C5CC5)cnn3-c3c(Cl)cccc3Cl)C4)sc2c1 [Example 7, 2-(2-((4-Cyclopropyl-1-(2,6-dichlorophenyl)-1H-pyrazol-5-yl)methylene)-7-azaspiro[3.5]nonan-7-yl)-4-fluorobenzo[d]thiazole-6-carboxylic acid] |
| 677 | – | CN(C)C(=O)c1cc(F)c2nc(N3CCC4(CC3)CC(=Cc3c(-c5c(Cl)cncc5Cl)noc3C(F)(F)F)C4)sc2c1 [Example 192] |
| 69 | – | O=C(O)c1cc(F)c2nc(N3CCC4(CC3)CC(=Cc3c(-c5c(Cl)cncc5Cl)noc3C3CC3)C4)sc2c1 [Example 88] |
| 16 | – | O=C(O)c1cc(OC2CCCC2)c2cc(N3CCC4(CC3)CC(Cc3c(-c5ccccc5OC(F)(F)F)noc3C3CC3)C4)ccc2n1 [Example 122] |
| 1420 | – | O=C(O)c1cc(C(F)(F)F)c2cc(N3CCC4(CC3)CC(=Cc3c(C(C5CC5)C5CC5)noc3C3CC3)C4)ccc2n1 [Example 106] |
| 77 | – | O=C(O)c1cc(F)c2nc(N3CCC4(CC3)CC(Nc3c(-c5ccccc5OC(F)(F)F)noc3C3CC3)C4)sc2c1 [Example 18] |
| 1820 | – | O=C(O)c1ccc(N2CCC3(CC2)CC(Nc2c(-c4c(Cl)cccc4Cl)noc2C2CC2)C3)nn1 [Example 15] |
| 33 | – | COCc1onc(-c2c(Cl)cncc2Cl)c1C=C1CC2(CCN(c3ccc4nc(C(=O)O)cc(C(F)(F)F)c4c3)CC2)C1 [Example 158] |
| 11 | – | O=C(O)c1cc(OC2CCC2)c2cc(N3CCC4(CC3)CC(=Cc3c(-c5c(Cl)cncc5Cl)noc3C(F)(F)F)C4)ccc2n1 [Example 164] |
| 3 | – | O=C(O)c1cc(OC2CCCC2)c2cc(N3CCC4(CC3)CC(=Cc3c(-c5ccccc5C(F)(F)F)noc3C3CC3)C4)ccc2n1 [Example 120] |
| 2 | – | O=C(O)c1cc(OC(F)F)c2cc(N3CCC4(CC3)CC(Cc3c(-c5ccccc5C(F)(F)F)noc3C3CC3)C4)ccc2n1 [Example 79] |
| 243 | – | O=C(O)c1ccc2cc(N3CCC4(CC3)CC(Cc3c(-c5ccccc5C(F)(F)F)noc3C3CC3)C4)ccc2n1 [Example 32] |
| 54 | – | Cn1cc(-c2nn[nH]n2)c2ccc(N3CCC4(CC3)CC(=Cc3c(-c5ccccc5C(F)(F)F)noc3C3CC3)C4)cc21 [Example 62] |
| 37 | – | C=Cc1cncc(Cl)c1-c1noc(C2CC2)c1C=C1CC2(CCN(c3ccc4nc(C(=O)O)cc(C(F)(F)F)c4c3)CC2)C1 [Example 160] |
| 350 | – | C=Cc1cncc(Cl)c1-c1noc(C2CC2)c1C=C1CC2(CCN(c3nc4c(F)cc(C(=O)O)cc4s3)CC2)C1 [Example 159] |
| 1500 | – | COc1cc([N+](=O)[O-])ccc1S(=O)(=O)N1CCC2(CC1)CC(Cc1c(-c3c(Cl)cccc3Cl)noc1C1CC1)C2 [Example 175] |
| 68 | – | O=C(O)c1cc(F)c2nc(N3CCC4(CC3)CC(=Cc3c(-c5c(Cl)cccc5Cl)noc3C(F)(F)F)C4)sc2c1 [Example 126] |
| 428 | – | O=C(c1cc(OC2CCC2)c2cc(N3CCC4(CC3)CC(Cc3c(-c5ccccc5C(F)(F)F)noc3C3CC3)C4)ccc2n1)N1CCC1 [Example 187] |

Further lines, the compound ahead of its results:

| SMILES | EC50 [1] [nM] | EC50 (read-out: HLE GAL-FXR EC50) [nM] |
| --- | --- | --- |
| O=C(O)c1cc(CO)c2cc(N3CCC4(CC3)CC(Cc3c(-c5ccccc5C(F)(F)F)noc3C3CC3)C4)ccc2n1 [Example 154] | 326 | – |
| O=C(c1cc(OC2CCC2)c2cc(N3CCC4(CC3)CC(Cc3c(-c5ccccc5C(F)(F)F)noc3C3CC3)C4)ccc2n1)N1CCC(O)CC1 [Example 190] | 11 | – |
| O=C(O)c1cc2ccc(N3CCC4(CC3)CC(Cc3c(-c5c(Cl)cccc5Cl)noc3C3CC3)C4)cc2nn1 [Example 65] | 204 | – |
| O=C(O)c1ccc(CN2CCC3(CC2)CC(=Cc2c(-c4c(Cl)cccc4Cl)noc2C2CC2)C3)cc1 [Example 52] | 4320 | – |
| COc1cc2nc(N3CCC4(CC3)CC(Cc3c(-c5ccccc5C(F)(F)F)noc3C3CC3)C4)sc2cc1C(=O)O [Example 105] | 228 | – |
| O=C(O)c1cc(OC2COC2)c2cc(N3CCC4(CC3)CC(=Cc3c(-c5ccccc5C(F)(F)F)noc3C3CC3)C4)ccc2n1 [Example 137] | 78 | – |
| COc1cc(C(=O)O)nc2ccc(N3CCC4(CC3)CC(=Cc3c(-c5c(Cl)cncc5Cl)noc3C(F)(F)F)C4)cc12 [Example 161] | 27 | – |
| COc1cc2nc(N3CCC4(CC3)CC(=Cc3c(-c5c(Cl)cncc5Cl)noc3C3CC3)C4)sc2cc1C(=O)O [Example 102] | 157 | – |
| CC(C)(C)OC(=O)N1c2ccc(N3CCC4(CC3)CC(=Cc3c(-c5ccccc5OC(F)(F)F)noc3C3CC3)C4)cc2CCC1C(=O)O (stereo not shown) [Example 111] | 481 | – |
| O=C(O)c1cc(OC2CCC2)c2cc(N3CCC4(CC3)CC(Cc3c(-c5ccccc5OC(F)(F)F)noc3C3CC3)C4)ccc2n1 [Example 116] | 14 | – |
| Cc1cccc(Cl)c1-c1noc(C2CC2)c1C=C1CC2(CCN(c3ccc4cc(C(=O)O)ccc4c3)CC2)C1 [Example 55] | 125 | – |
| O=C(O)c1cc(F)c2nc(N3CCC4(CC3)CC(=Cc3c(-c5c(Cl)cccc5Cl)noc3C3CC3)C4)sc2c1 [Example 1, 2-(2-((5-Cyclopropyl-3-(2,6-dichlorophenyl)isoxazol-4-yl)methylene)-7-azaspiro[3.5]nonan-7-yl)-4-fluorobenzo[d]thiazole-6-carboxylic acid] | – | 41 |
| Cc1cccc(Cl)c1-c1noc(C2CC2)c1C=C1CC2(CCN(c3ccc4nc(C(=O)O)cc(C(F)(F)F)c4c3)CC2)C1 [Example 58] | 10 | – |
| O=C(O)c1cccc(N2CCC3(CC2)CC(Nc2c(-c4c(Cl)cccc4Cl)noc2C2CC2)C3)n1 [Example 14] | 1570 | – |
| O=C(O)c1cc(OC2CCOC2)c2cc(N3CCC4(CC3)CC(Cc3c(-c5ccccc5C(F)(F)F)noc3C3CC3)C4)ccc2n1 (stereo not shown) [Example 151] | 12 | – |
| O=C(O)c1ccc2nc(N3CCC4(CC3)CC(=Cc3c(-c5ccccc5C(F)(F)F)noc3C3CC3)C4)sc2n1 [Example 113] | 1240 | – |
| Cc1nc(C(=O)O)c2ccc(N3CCC4(CC3)CC(=Cc3c(-c5ccccc5C(F)(F)F)noc3C3CC3)C4)cn12 [Example 74] | 114 | – |
| O=C(O)Cc1ccc(N2CCC3(CC2)CC(=Cc2c(-c4c(Cl)cccc4Cl)noc2C2CC2)C3)cc1 [Example 45] | 320 | – |
| COc1cc(C(=O)O)nc2ccc(N3CCC4(CC3)CC(Cc3c(-c5ccccc5C(F)(F)F)noc3C3CC3)C4)cc12 [Example 69] | 17 | – |
| O=C(NS(=O)(=O)C1CC1)c1cc(C(F)(F)F)c2cc(N3CCC4(CC3)CC(Cc3c(-c5ccccc5C(F)(F)F)noc3C3CC3)C4)ccc2n1 [Example 82, 6-(2-((5-Cyclopropyl-3-(2-(trifluoromethyl)phenyl)isoxazol-4-yl)methyl)-7-azaspiro[3.5]nonan-7-yl)-N-(cyclopropylsulfonyl)-4-(trifluoromethyl)quinoline-2-carboxamide] | – | 11 |
| O=C(O)c1cc(F)c2nc(N3CCC4(CC3)CC(=Cc3c(-c5c(Cl)cncc5Cl)noc3C(F)(F)F)C4)sc2c1 [Example 150] | 110 | – |
| O=C(O)c1cc(OC(F)F)c2cc(N3CCC4(CC3)CC(=Cc3c(-c5c(Cl)cncc5Cl)noc3C3CC3)C4)ccc2n1 [Example 81] | 3 | – |
| COCCOc1cc(C(=O)O)nc2ccc(N3CCC4(CC3)CC(Cc3c(-c5ccccc5C(F)(F)F)noc3C3CC3)C4)cc12 [Example 97] | 73 | – |
| O=C(O)c1ccc(N2CCC3(CC2)CC(=Cc2c(-c4c(Cl)cccc4Cl)cnn2C2CC2)C3)nc1 [Example 23] | 4640 | – |
| Cn1cc(C(=O)O)c2ccc(N3CCC4(CC3)CC(=Cc3c(-c5ccccc5OC(F)(F)F)noc3C3CC3)C4)cc21 [Example 27] | 21 | – |
| O=C(O)c1ccc(N2CCC3(CC2)CC(=Cc2c(-c4c(Cl)cccc4Cl)noc2C2CC2)C3)cc1 [Example 66] | 693 | – |
| O=C(O)c1cc(OC2COC2)c2cc(N3CCC4(CC3)CC(Cc3c(-c5ccccc5C(F)(F)F)noc3C3CC3)C4)ccc2n1 [Example 138] | 23 | – |
